Source: patent publication US6858650B1, “Stable salts of novel derivatives of 3,3-diphenylpropylamines” (Schwarz Pharma AG, priority 1999, dated 2005)

Key:
[1] = Stability of the solid salt / on storage; assay type: physicochemical
[2] = Hygroscopicity of the solid salt; assay type: physicochemical

| stability ([1]; hydrate-containing product from humid solvent with at least one mole equivalent of water) | hygroscopicity ([2]; anhydrous product crystallised from isobutyrate chloride solution) | stability ([1]; crystalline hydrogen fumarate salt, at RT) | hygroscopicity ([2]; crystalline hydrogen fumarate salt) | Compound |
| --- | --- | --- | --- | --- |
| stable | very hygroscopic | – | – | CC(C)C(=O)Oc1ccc(CO)cc1C(CCN(C(C)C)C(C)C)c1ccccc1.Cl (stereo not drawn) [2b, R-(+)-2-(3-diisopropylamino-1-phenylpropyl)-4-hydroxymethylphenyl-isobutyrate ester hydrochloride hydrate] |
| – | – | stable at RT | non-hygroscopic | CC(C)C(=O)Oc1ccc(CO)cc1C(CCN(C(C)C)C(C)C)c1ccccc1.O=C(O)/C=C/C(=O)O (stereo not drawn) [2a, R-(+)-2-(3-diisopropylamino-1-phenylpropyl)-4-hydroxymethylphenyl-isobutyrate ester hydrogen fumarate] |
